How the values were obtained:
[1] = tested on: Akt phosphorylation in Molt-4 (PTEN−/SHIP1+) cells; experiment: Akt phosphorylation in IGF-1 stimulated Molt-4 lymphocytes (western blot); format: cell-based; parameters: key: +: inhibits Akt phosphorylation at 10 μM; −: no effect on Akt phosphorylation at 10 μM; settings: 10 μM; IGF-1 stimulation
Experimental: (§1) Jurkat (PTEN−/SHIP1−) or Molt-4 (PTEN−/SHIP1+) cells were starved in serum free RPMI for overnight. In a 15 mL conical tube, 2-3 million serum starved cells (1 million cells per mL) were treated with various concentrations of test compound (0.1, 1, or 10 μM final in 0.1% DMSO) for 30 min at 37° C. followed by stimulation with 100 ng/mL of IGF-1 for 1 hour at 37° C. After stimulation, cells were washed once with ice-cold DPBS and lysed with Lysis Buffer (20 mM Tris-HCl, pH 7.5, 140 mM NaCl, 1% NP-40, Complete Mini Protease Inhibitor Cocktail, 10 mM NaF, 1 mM Na3VO4, 1 mM β-glycerolphosphate) on ice for 30 min with vortexing every 10 min. Samples were then centrifuged at 13,000 rpm for 20 min, and supernatants were collected as total cell lysate samples. Protein concentration was determined using bicinchonic acid assay, and about 15 μg of total protein from each sample was loaded and separated on a 4-12% Tris-Glycine gel. After SDS-PAGE, proteins were transferred from the gel to a nitrocellulose membrane. The membrane was blocked in 5% BSA in PBS containing 0.1% Tween-20 (PBS-T) for 1 hour at room temperature before probing with primary antibodies for overnight at 4° C. The following antibodies were used: mouse anti-SHIP1 (1:500 dilution; Santa Cruz, Calif., USA), rabbit anti-phospho-Akt(Ser473) (1:1000 dilution; Cell Signaling Technologies, MA, USA), rabbit anti-Akt (1:1000; Cell Signaling Technologies, MA, USA), and rabbit anti-actin (1:2000; Cell Signaling Technologies, MA, USA). The membrane was then incubated with goat anti-rabbit or anti-mouse secondary antibodies (1:3000) for 1 hour at room temperature. Target proteins on the membrane were detected with ECL solution and exposed on a film.
(§2) Scoring in Table 3 is expressed as follows: + (inhibits Akt phosphorylation at 10 μM); − (no effect on Akt phosphorylation at 10 μM).

His-hSHIP1 enzyme = biological target: T1, His-hSHIP1 enzyme (Homo sapiens, UniProt Q92835); experiment: His-hSHIP1 phosphatase activity assay (IP4 substrate, Biomol Green); format: biochemical; settings: percentage increase relative to background; concentrations ≦300 μM
T1 sequence (Q92835 1-1189): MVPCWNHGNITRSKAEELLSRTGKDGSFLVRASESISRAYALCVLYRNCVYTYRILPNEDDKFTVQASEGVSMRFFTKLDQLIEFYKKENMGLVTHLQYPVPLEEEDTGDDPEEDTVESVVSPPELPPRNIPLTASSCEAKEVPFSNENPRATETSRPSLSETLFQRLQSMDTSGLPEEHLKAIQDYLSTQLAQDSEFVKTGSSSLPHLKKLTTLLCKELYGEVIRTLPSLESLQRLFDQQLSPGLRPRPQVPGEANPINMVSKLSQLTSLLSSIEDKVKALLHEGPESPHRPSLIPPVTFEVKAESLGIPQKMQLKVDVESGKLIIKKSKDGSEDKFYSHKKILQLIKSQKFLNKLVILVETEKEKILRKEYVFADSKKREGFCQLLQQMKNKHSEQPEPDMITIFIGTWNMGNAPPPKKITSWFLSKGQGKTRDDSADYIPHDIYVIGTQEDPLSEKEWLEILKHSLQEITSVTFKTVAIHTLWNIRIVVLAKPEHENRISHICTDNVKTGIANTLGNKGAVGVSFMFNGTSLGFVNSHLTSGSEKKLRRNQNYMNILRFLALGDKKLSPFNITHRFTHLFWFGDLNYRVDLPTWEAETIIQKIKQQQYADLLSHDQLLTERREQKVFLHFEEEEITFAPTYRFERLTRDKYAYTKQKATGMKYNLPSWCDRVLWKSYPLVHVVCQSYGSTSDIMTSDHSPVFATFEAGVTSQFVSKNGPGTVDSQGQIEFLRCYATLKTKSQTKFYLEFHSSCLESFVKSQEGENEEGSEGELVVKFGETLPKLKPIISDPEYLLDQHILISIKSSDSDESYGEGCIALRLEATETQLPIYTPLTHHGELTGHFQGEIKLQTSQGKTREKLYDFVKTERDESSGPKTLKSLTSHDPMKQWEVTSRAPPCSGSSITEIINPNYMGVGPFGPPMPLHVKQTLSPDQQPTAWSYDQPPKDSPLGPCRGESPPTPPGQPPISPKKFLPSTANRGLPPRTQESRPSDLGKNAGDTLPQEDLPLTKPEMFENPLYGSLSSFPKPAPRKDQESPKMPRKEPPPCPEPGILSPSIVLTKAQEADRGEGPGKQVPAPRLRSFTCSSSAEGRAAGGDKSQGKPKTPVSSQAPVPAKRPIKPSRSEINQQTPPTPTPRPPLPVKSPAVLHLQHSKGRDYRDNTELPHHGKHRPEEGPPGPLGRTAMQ
Experimental: Test compounds were dissolved in 95% ethanol to form stock solutions. Before screening, the stock solutions were diluted with Phosphatase Assay Buffer (20 mM Tris-HCL, 10 mM MgCl2 pH 7.5, 0.02% Tween 20) to form working assay solutions that contained 10% ethanol. The assay was carried out on 96-well microtiter plates using a modified procedure of that reported by Ong et al., Blood 110, 1942-1949, 2007 and Yang et al., Org Lett 7, 1073-1076, 2005, both of which references are incorporated herein by reference in their entirety.
Each reaction contained 5 μL of His-hSHIP1 enzyme (15-20 ng), 10 μL of the substrate, 1,3,4,5-inositol tetrakisphosphate (IP4; 50 μM final), 5 μL of Phosphatase Assay Buffer, and 5 μL of test compound at various concentrations in 10% ethanol (0-300 μM final). Control blanks were also prepared by replacing His-hSHIP1 enzyme, IP4, or test compounds with Phosphatase Assay Buffer. After adding the reaction components in a 96-well microtiter plate on ice, the reaction was mixed by briefly shaking the plate vigorously. The reaction was then incubated at 37° C. for 15 min with gentle shaking followed by addition of 100 μL of Biomol Green Reagent (BIOMOL, PA, USA) to terminate the reaction. The free phosphate released from IP4 by His-hSHIP1 bound to the Biomol Green Reagent, turning the solution green in colour. After incubating the mixture for 20 min at room temperature for colour development, the absorbance was read with a SpectraMax Plus 96-well plate reader (Molecular Devices, Sunnyvale, Calif., USA) at a wavelength of 650 nm.
Percent (%) activation in Table 2 is expressed as a percentage increase relative to background. Scoring is expressed as follows: + (<50%); ++ (≧50% but <65%); +++ (≧65%).

[2] = tested on: Akt phosphorylation in Jurkat (PTEN−/SHIP1−) cells; experiment: Akt phosphorylation in IGF-1 stimulated Jurkat lymphocytes (western blot); format: cell-based; parameters: key: +: inhibits Akt phosphorylation at 10 μM; −: no effect on Akt phosphorylation at 10 μM; settings: 10 μM; IGF-1 stimulation
Experimental: as §1, §2

OPM2 cells = experiment: Inhibition of OPM2 proliferation (BrdU ELISA); format: cell-based; settings: Homo sapiens, OPM-2, 72 hours, read-out: Scoring: % inhibition of OPM2 proliferation
Experimental: Test compounds were dissolved in 100% DMSO to form stock solutions. Prior to screening, the stock solutions were diluted with complete media (RPMI 1640 containing 10% fetal calf serum, 2 mM L-glutamine and 50 U/mL each of penicillin and streptomycin) to form working assay solutions that contain 0.2% DMSO. The assay was initiated by adding 30,000 OPM2 cells (in 50 μL) to 50 μL of representative compounds at concentrations ranging from 0.03 to 30 μM. The cells were incubated for 72 hours in a humidified CO2 incubator with the addition of 10 μM BrdU for the final 6 hours according to the directions from the Roche BrdU Cell Proliferation ELISA kit used to detect proliferation (Roche, Cat. No. 11 647 229 001). OPM2 cells incubated in 0.1% DMSO in complete media were used as a negative control and the PI3Kα Inhibitor 2 (3-[4-(4-morpholinyl)thieno[3,2-d]pyrimidin-2-yl-phenol, Cayman Chemical, Cat. No. 10010177) was used as a positive control for inhibition of proliferation. At the end of the incubation, the plate containing the labeled cells was centrifuged, the supernatant removed and the cell pellets dried at 60° C. for 1 hour and stored at 4° C. until further analysis. Analysis of BrdU incorporation was done according to the manufacturer's instructions.

Row | Compound | Scoring: percent (%) activation of His-hSHIP1 enzyme (His-hSHIP1 enzyme) | Akt phosphorylation, Molt-4 (SHIP1+) [1] | Akt phosphorylation, Jurkat (SHIP1−) [2] | inhibition at 30 µM (OPM2 cells) [%]
1 | CN1CCN(C(=O)c2cc(O)c3c(c2)S(=O)(=O)C[C@@H]2[C@@]4(C)CCCC(C)(C)[C@@H]4CC[C@@]32C)CC1 [compound 89, (1R,10R,11S,16S)-3-hydroxy-1,11,15,15-tetramethyl-5-[(4-methylpiperazin-1-yl)-carbonyl]-8λ^6-thiatetracyclo[8.8.0.0^2,7.0^11,16]octadeca-2,4,6-triene-8,8-dione] | + (<50%) |  |  | ≥ 75
2 | COC(=O)CNC(=O)c1cc(O)c2c(c1)S(=O)(=O)C[C@@H]1[C@@]3(C)CCCC(C)(C)[C@@H]3CC[C@@]21C [compound 92, methyl 2-{[(1R,10R,11S,16S)-3-hydroxy-1,11,15,15-tetramethyl-8,8-dioxo-8λ^6-thiatetracyclo[8.8.0.0^2,7.0^11,16]octadeca-2,4,6-trien-5-yl]formamido}acetate] | + (<50%) |  |  | ≥ 75
3 | CC1(C)CCC[C@]2(C)[C@H]3CS(=O)(=O)c4cc(C(=O)N5CCNCC5)cc(O)c4[C@]3(C)CC[C@@H]12 [compound 102, (1R,10R,11S,16S)-3-hydroxy-1,11,15,15-tetramethyl-5-[(piperazin-1-yl)carbonyl]-8λ^6-thiatetracyclo[8.8.0.0^2,7.0^11,16]-octadeca-2,4,6-triene-8,8-dione] | + (<50%) |  |  | ≥ 75
4 | CNC(=O)c1cc(OC)c2c(c1)S(=O)(=O)C[C@@H]1[C@@]3(C)CCCC(C)(C)[C@@H]3CC[C@@]21C [compound 81, (1R,10R,11S,16S)-3-methoxy-N,1,11,15,15-pentamethyl-8,8-dioxo-8λ^6-thiatetracyclo[8.8.0.0^2,7.0^11,16]octadeca-2,4,6-triene-5-carboxamide] | + (<50%) |  |  | 25 to 75
5 | COc1cc(OC)c2c(c1N)S(=O)(=O)C[C@@H]1[C@@]3(C)CCCC(C)(C)[C@@H]3CC[C@@]21C [compound 112, (1R,10R,11S,16S)-6-amino-3,5-dimethoxy-1,11,15,15-tetramethyl-8^6-thiatetracyclo[8.8.0.0^2,7.0^11,16]octadeca-2,4,6-triene-8,8-dione] |  |  |  | ≥ 75

Continued, in another order:

Row | Scoring: percent (%) activation of His-hSHIP1 enzyme (His-hSHIP1 enzyme) | Compound | Akt phosphorylation, Molt-4 (SHIP1+) [1] | Akt phosphorylation, Jurkat (SHIP1−) [2] | inhibition at 30 µM (OPM2 cells) [%]
6 | + (<50%) | CC1(C)CCC[C@]2(C)[C@H]3COc4cc(O)cc(O)c4[C@]3(C)CC[C@@H]12 [Compound No. 50, (1R,10R,11S,16S)-1,11,15,15-tetramethyl-8-oxatetracyclo[8.8.0.0^2,7.0^11,16]octadeca-2,4,6-triene-3,5-diol] | + | − | 
7 | + (<50%) | CC1(C)CCC[C@]2(C)[C@H]3CSc4cc(O)cc(C#N)c4[C@]3(C)CC[C@@H]12 [compound 78, (1R,10R,11S,16S)-5-hydroxy-1,11,15,15-tetramethyl-8-thiatetracyclo[8.8.0.0^2,7.0^11,16]octadeca-2,4,6-triene-3-carbonitrile] |  |  | ≥ 75
8 | ++ (≧50% but <65%) | CC1(C)CCC[C@]2(C)[C@H]3CS(=O)(=O)c4cc(C(=O)N5CCOCC5)cc(O)c4[C@]3(C)CC[C@@H]12 [compound 87, (1R,10R,11S,16S)-3-hydroxy-1,11,15,15-tetramethyl-5-[(morpholin-4-yl)-carbonyl]-8λ^6-thiatetracyclo[8.8.0.0^2,7.0^11,16]-octadeca-2,4,6-triene-8,8-dione] |  |  | 25 to 75
9 | + (<50%) | COc1cc(O)cc2c1[C@]1(C)CC[C@H]3C(C)(C)CCC[C@]3(C)[C@H]1CS2(=O)=O [compound 57, (1R,10R,11S,16S)-5-hydroxy-3-methoxy-1,11,15,15-tetramethyl-8λ^6-thiatetracyclo[8.8.0.0^2,7.0^11,16]octadeca-2,4,6-triene-8,8-dione] |  |  | ≥ 75
10 | ++ (≧50% but <65%) | CNC(=O)c1cc(O)c2c(c1)S(=O)(=O)C[C@@H]1[C@@]3(C)CCCC(C)(C)[C@@H]3CC[C@@]21C [Compound No. 62] |  |  | 25 to 75

— patent US8101605B2, “SHIP1 modulators and methods related thereto” (Aquinox Pharmaceuticals Inc., priority 2009, dated 2012)
